Here are results for 25 molecules from ChEMBL document CHEMBL5032527, “N-(4-acetamidophenyl)-5-acetylfuran-2-carboxamide as a novel orally available diuretic that targets urea transporters with improved PD and PK properties” (Eur J Med Chem, 2021).

SMILES strings stand for the structures. Activity calls are given as the source filed them. No cut-off for these calls is given here.

Series [1] addresses T1, Urea transporter 1 (Mus musculus, UniProt Q8VHL0).
T1 sequence (Q8VHL0 whole entry): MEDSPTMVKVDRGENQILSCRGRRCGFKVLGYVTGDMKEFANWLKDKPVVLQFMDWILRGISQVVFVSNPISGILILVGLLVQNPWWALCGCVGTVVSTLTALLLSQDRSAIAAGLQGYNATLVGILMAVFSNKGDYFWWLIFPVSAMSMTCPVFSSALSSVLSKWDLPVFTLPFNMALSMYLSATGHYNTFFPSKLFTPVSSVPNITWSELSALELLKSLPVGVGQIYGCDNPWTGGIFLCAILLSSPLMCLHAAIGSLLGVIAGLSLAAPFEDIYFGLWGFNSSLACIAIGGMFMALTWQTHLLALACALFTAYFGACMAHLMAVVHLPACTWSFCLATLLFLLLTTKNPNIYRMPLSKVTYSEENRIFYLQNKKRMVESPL
Nature of the series: Inhibition of mouse UT-B expressed in MDCK cells. It is filed as cell-based.

Series [2] concerns the target T2, Urea transporter 1 (Rattus norvegicus, UniProt P97689).
T2 sequence (P97689 whole entry): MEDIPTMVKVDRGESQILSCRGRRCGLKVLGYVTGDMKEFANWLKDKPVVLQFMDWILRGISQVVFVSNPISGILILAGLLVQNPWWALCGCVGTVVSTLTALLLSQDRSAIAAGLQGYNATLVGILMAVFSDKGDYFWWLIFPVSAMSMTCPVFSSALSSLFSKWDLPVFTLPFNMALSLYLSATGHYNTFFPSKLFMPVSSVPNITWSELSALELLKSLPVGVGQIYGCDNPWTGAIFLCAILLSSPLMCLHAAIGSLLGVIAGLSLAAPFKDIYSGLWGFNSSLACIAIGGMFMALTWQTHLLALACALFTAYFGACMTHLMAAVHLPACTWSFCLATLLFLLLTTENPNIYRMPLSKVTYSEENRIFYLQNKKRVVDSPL
As to the kind of experiment: Inhibition of rat UT-B expressed in MDCK cells. It is filed as cell-based.

Series [3] concerns Rattus norvegicus. As to the kind of experiment: Diuretic activity in Sprague-Dawley rat assessed as increase in urine volume at 100 mg/kg, IG after 4 hrs. It is filed as functional, organism-based.
Series [4] in a line: Metabolic stability in Sprague-Dawley rat liver microsomes assessed as percentage of compound remaining after 240 mins by LC-MS/MS analysis. The format is ADME, Microsome. Particulars: read-out: Stability.
For series [5], the system named is MDCK. Nature of the series: Inhibition of rat UT-A1 expressed in MDCK cells assessed as inhibition of urea transport at 8 uM. It is filed as cell-based.
Series [6] can be described thus: Cmax in Sprague-Dawley rat at 100 mg/kg, po by LC-MS/MS analysis. Further details: route oral, dose 100 mg/kg. The note with it: in vivo. It is filed as ADME, organism-based.
Series [7] is described as follows: AUC (0 to infinity) in Sprague-Dawley rat at 100 mg/kg, po by LC-MS/MS analysis. The format is ADME, organism-based. Set-up: route oral, time infinity, dose 100 mg/kg. Particulars: in vivo.
Series [8] can be described thus: Half life in Sprague-Dawley rat at 100 mg/kg, po by LC-MS/MS analysis. It is filed as ADME, organism-based. The note with it: in vivo.
Series [9] can be described thus: MRT in Sprague-Dawley rat at 100 mg/kg, po by LC-MS/MS analysis. It is filed as ADME, organism-based. Particulars: in vivo.
The nature of series [10]: AUC (0 to t) in Sprague-Dawley rat at 100 mg/kg, po by LC-MS/MS analysis. The note with it: in vivo. It is filed as ADME, organism-based. Set-up: dose 100 mg/kg.
Series [11] can be described thus: Bioavailability in Sprague-Dawley rat at 100 mg/kg, po by LC-MS/MS analysis. It is filed as ADME, organism-based. The note with it: in vivo.
Series [12] can be described thus: Metabolic stability in Sprague-Dawley rat plasma assessed as percentage of compound remaining after 240 mins by LC-MS/MS analysis. It is filed as ADME, cell-free. Particulars: read-out: Stability.
In series [13] the test system is MDCK. Nature of the series: Cytotoxicity against MDCK cells assessed as reduction in cell viability at 80 uM measured by CCK-8 assay. The note with it: dog. It is filed as cell-based, Canis lupus familiaris.
The subject of series [14] is Rattus norvegicus. Nature of the series: Diuretic activity in Sprague-Dawley rat assessed as increase in urine volume at 50 mg/kg, IG after 2 hrs. The format is functional, organism-based.
Series [15] concerns Rattus norvegicus. Nature of the series: Diuretic activity in Sprague-Dawley rat assessed as increase in urine volume at 100 mg/kg, IG. The format is functional, organism-based. Particulars: TDE = time-dependent effect.
The next series in a line: in vivo. Particulars: Sprague-Dawley, rat, po, 100 mg/kg.
Series [16] deals with MDCK. As to the kind of experiment: Cytotoxicity against MDCK cells assessed as reduction in cell viability at 400 uM measured by CCK-8 assay. The format is cell-based, Canis lupus familiaris. The note with it: dog.
Series [17] has as its target Voltage-gated inwardly rectifying potassium channel KCNH2 (Homo sapiens, UniProt Q12809). As to the kind of experiment: Inhibition of hERG. The note with it: read-out: INH. In general terms: The hERG channel carries a current that helps repolarise heart muscle cells.
Series [18] addresses T3, Urea transporter 1 (Rattus norvegicus) (UniProt P97689).
T3 sequence (whole entry): T2 sequence (P97689 whole entry)
As to the kind of experiment: Inhibition of rat UT-B expressed in MDCK cells assessed as inhibition of urea transport at 8 uM. It is filed as cell-based.

The species named for series [19] is Mus musculus. Nature of the series: Diuretic activity in mouse assessed as increase in urine volume. The format is functional, organism-based.
The species named for series [20] is Rattus norvegicus. As to the kind of experiment: Diuretic activity in IG treated Sprague-Dawley rat assessed as reduction in urine osmolality. The format is functional.
Series [21] is filed under the species Mus musculus. Nature of the series: Diuretic activity in mouse assessed as reduction in urine osmolality. The format is functional, organism-based.
Series [22] concerns Mus musculus. As to the kind of experiment: Diuretic activity in mouse assessed as increase in urine output at 100 mg/kg, IG measured after 7 days. It is filed as functional, organism-based. Particulars: time 7.0 day.
In series [23] the test system is Rattus norvegicus. Nature of the series: Diuretic activity in Sprague-Dawley rat assessed as increase in urine volume at 100 mg/kg, IG after 2 hrs. The format is functional, organism-based.

Voltage-gated inwardly rectifying potassium channel KCNH2, sequence (Q12809 whole entry): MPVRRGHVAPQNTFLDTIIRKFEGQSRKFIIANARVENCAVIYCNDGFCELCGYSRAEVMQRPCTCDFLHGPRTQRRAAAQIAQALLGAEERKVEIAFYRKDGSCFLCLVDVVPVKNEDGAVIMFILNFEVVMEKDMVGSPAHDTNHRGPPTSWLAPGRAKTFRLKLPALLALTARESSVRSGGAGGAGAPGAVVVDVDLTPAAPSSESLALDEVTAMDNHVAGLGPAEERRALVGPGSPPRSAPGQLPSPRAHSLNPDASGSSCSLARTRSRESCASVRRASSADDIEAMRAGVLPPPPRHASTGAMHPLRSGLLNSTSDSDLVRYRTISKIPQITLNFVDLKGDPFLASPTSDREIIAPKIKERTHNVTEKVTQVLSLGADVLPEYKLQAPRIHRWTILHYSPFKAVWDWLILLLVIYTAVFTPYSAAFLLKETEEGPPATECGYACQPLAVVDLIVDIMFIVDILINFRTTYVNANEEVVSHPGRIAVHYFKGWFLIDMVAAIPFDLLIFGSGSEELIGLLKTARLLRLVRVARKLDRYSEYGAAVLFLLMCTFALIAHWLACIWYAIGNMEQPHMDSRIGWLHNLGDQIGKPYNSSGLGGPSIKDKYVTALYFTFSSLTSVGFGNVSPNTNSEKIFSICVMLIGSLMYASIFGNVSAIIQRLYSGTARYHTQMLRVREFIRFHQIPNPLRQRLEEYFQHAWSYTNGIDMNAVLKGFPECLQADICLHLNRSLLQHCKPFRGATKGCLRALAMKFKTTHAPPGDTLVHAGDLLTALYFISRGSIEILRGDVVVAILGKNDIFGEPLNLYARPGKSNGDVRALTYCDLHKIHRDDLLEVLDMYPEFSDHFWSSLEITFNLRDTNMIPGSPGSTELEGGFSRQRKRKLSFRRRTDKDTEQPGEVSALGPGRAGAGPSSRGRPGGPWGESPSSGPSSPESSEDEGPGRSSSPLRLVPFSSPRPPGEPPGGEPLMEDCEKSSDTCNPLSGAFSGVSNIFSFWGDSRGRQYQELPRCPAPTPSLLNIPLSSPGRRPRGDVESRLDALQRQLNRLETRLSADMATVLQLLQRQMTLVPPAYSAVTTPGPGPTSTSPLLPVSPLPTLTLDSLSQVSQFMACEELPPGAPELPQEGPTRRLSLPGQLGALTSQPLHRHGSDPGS

Take `O=C(Nc1ccc2ccc(=O)[nH]c2c1)c1ccc([N+](=O)[O-])o1`: the IC50 at Urea transporter 1 [1] was determined as 1500 nM; at Urea transporter 1 [2], 600 nM.

Turning to `CCS(=O)(=O)Nc1ccc(NC(=O)c2ccc([N+](=O)[O-])o2)cc1`, the IC50 at Urea transporter 1 [1] was determined as 840 nM; against Urea transporter 1 [2], 280 nM.

Take `O=C(Nc1ccc(NS(=O)(=O)c2ccccc2)cc1)c1ccc([N+](=O)[O-])o1`: the IC50 against Urea transporter 1 [1] is 240 nM; against Urea transporter 1 [2] it was 110 nM.

As to `O=C(Nc1ccc(NS(=O)(=O)c2ccc(C(F)(F)F)cc2)cc1)c1ccc([N+](=O)[O-])o1`, the IC50 at Urea transporter 1 [1] is 3470 nM; against Urea transporter 1 [2], 2770 nM.

Take `O=C(Nc1ccc(NS(=O)(=O)c2cccc(C(F)(F)F)c2)cc1)c1ccc([N+](=O)[O-])o1`: the figures for the IC50 against Urea transporter 1 [1] and against Urea transporter 1 [2] were 2220 nM and 1660 nM, respectively.

Consider `O=C(Nc1ccc(NS(=O)(=O)c2ccccc2F)cc1)c1ccc([N+](=O)[O-])o1`, for which the results for the IC50 against Urea transporter 1 [1] and against Urea transporter 1 [2] were 1680 nM and 1040 nM, respectively.

Turning to `O=C(Nc1ccc(NS(=O)(=O)c2ccccc2Cl)cc1)c1ccc([N+](=O)[O-])o1`, the IC50 amounted to 1050 nM against Urea transporter 1 [1] and 530 nM on Urea transporter 1 [2].

Regarding `CC(=O)Nc1ccc(NC(=O)c2ccc(C(F)F)o2)cc1`, the IC50 against Urea transporter 1 [1] and at Urea transporter 1 [2] was > 10000 nM each time.

For `O=C(Nc1cccc2[nH]c(=O)ccc12)c1ccc([N+](=O)[O-])o1`, the IC50 at Urea transporter 1 [1] and against Urea transporter 1 [2] was > 10000 nM each time.

For `O=C(Nc1ccc(NS(=O)(=O)c2cccc(F)c2)cc1)c1ccc([N+](=O)[O-])o1`, the IC50 against Urea transporter 1 [1] came out at 1320 nM; on Urea transporter 1 [2], 660 nM.

As to `O=C(Nc1ccc(NS(=O)(=O)c2ccc(Cl)cc2)cc1)c1ccc([N+](=O)[O-])o1`, the values for the IC50 against Urea transporter 1 [1] and against Urea transporter 1 [2] were 690 nM and 430 nM, respectively.

Take `CC(=O)Nc1ccc(NC(=O)c2ccc(C(=O)C(C)(C)C)o2)cc1`: the IC50 at Urea transporter 1 [1] and against Urea transporter 1 [2] was > 10000 nM in each case.

Turning to `O=C(Nc1ccc(NS(=O)(=O)c2cccc(Br)c2)cc1)c1ccc([N+](=O)[O-])o1`, the IC50 against Urea transporter 1 [1] was 1600 nM; against Urea transporter 1 [2] it was 810 nM.

For `O=C1CCc2cc(NC(=O)c3ccc([N+](=O)[O-])o3)ccc2N1`, the IC50 at Urea transporter 1 [1] is 2190 nM; on Urea transporter 1 [2], 1060 nM.

As to `O=C(Nc1ccc(NS(=O)(=O)c2cccc(Cl)c2)cc1)c1ccc([N+](=O)[O-])o1`, the IC50 on Urea transporter 1 [1] was determined as 1010 nM; at Urea transporter 1 [2] it was 750 nM.

Take `CC(=O)Nc1ccc(NC(=O)c2ccc(F)o2)cc1`: the IC50 against Urea transporter 1 [1] was > 10000 nM; against Urea transporter 1 [2], 6470 nM.

Consider `O=C1Cc2cc(NC(=O)c3ccc([N+](=O)[O-])o3)ccc2N1`, for which the IC50 on Urea transporter 1 [1] amounted to 4990 nM; against Urea transporter 1 [2] it was 3170 nM.

Broadly, the inhibition is the relative decrease from the control value, in per cent. A word on the Cmax: it is the peak of the concentration-time curve. The AUC(0-inf) is total exposure, with the tail of the curve extrapolated. Usually MRT stands for a mean duration of stay, worked out from the concentration-time curve. The term AUC(0-t) denotes exposure summed from dosing to a finite time, without extrapolation to infinity. Low readings indicate less exposure, high ones more exposure. In general, bioavailability refers to the share of a dose that reaches the circulation, judged against a reference dose that is usually intravenous. Low values mean poor availability, high ones good availability. Take `CC(=O)Nc1ccc(NC(=O)c2ccc([N+](=O)[O-])o2)cc1`: the outcome in the series on Rattus norvegicus [3] was inactive. The remaining at 4 h in series [4] and in [12] was 20% in each case. Besides, the inhibition with MDCK [5] worked out at 102%. The same molecule yielded a Cmax in [6] of 74.3 ng/mL. In addition, in series [7], the AUC(0-inf) worked out at 82.5 ng·h/mL. This molecule also registered a t1/2 in series [8] of 0.93 h. Moreover, the MRT in series [9] stood at 1.51 h. In series [10], this molecule had an AUC(0-t) of 78.1 ng·h/mL. On Urea transporter 1 [2], the IC50 was determined as 1410 nM. For the same molecule, the bioavailability in series [11] turned out to be 4.38%.

Take `O=C(Nc1ccc2[nH]c(=O)ccc2c1)c1ccc([N+](=O)[O-])o1`: the values for the IC50 at Urea transporter 1 [1] and against Urea transporter 1 [2] were 2340 nM and 1230 nM, respectively.

For `O=C(Nc1cccc2ccc(=O)[nH]c12)c1ccc([N+](=O)[O-])o1`, the IC50 against Urea transporter 1 [1] was > 10000 nM; on Urea transporter 1 [2] it was 6050 nM.

Regarding `CC(=O)Nc1ccc(NC(=O)c2ccc(C(=O)c3ccccc3)o2)cc1`, the values for the IC50 on Urea transporter 1 [1] and at Urea transporter 1 [2] were 9850 nM and > 10000 nM, respectively.

`O=C(Nc1ccc(NS(=O)(=O)c2ccccc2C(F)(F)F)cc1)c1ccc([N+](=O)[O-])o1`: the figures for the IC50 at Urea transporter 1 [1] and on Urea transporter 1 [2] were 1490 nM and 870 nM, respectively.

As for `O=C(Nc1ccc(NS(=O)(=O)c2ccc(F)cc2)cc1)c1ccc([N+](=O)[O-])o1`, the IC50 against Urea transporter 1 [1] amounted to 1310 nM; against Urea transporter 1 [2], 640 nM.

For the molecule `CC(=O)c1ccc(C(=O)Nc2ccc(NS(=O)(=O)c3ccccc3)cc2)o1`, the results for the IC50 on Urea transporter 1 [1] and against Urea transporter 1 [2] were 160 nM and 150 nM, respectively. For the same molecule, the Activity entry in the series on MDCK [13] was “Toxic”.

A word on the Tmax: it is the time from dosing to the highest level. On to `CC(=O)Nc1ccc(NC(=O)c2ccc(C(C)=O)o2)cc1`, for which the result in the series on Rattus norvegicus [14], in the series filed under Mus musculus [19], in the series filed under Mus musculus [21], in the series with Mus musculus [22] and in the series on Rattus norvegicus [23] was Active. Further, the figures for the Activity result in the series with Rattus norvegicus [15] and in the series on MDCK [16] were “Tde” and “Toxic”, respectively. Also, the remaining at 4 h in series [4] and in series [12] was 20% throughout. In addition, the Tmax in the series “in vivo” is 0.21 h. Also, the figures for the inhibition (with MDCK [5]; in [18]) were 84.4% and 89.6%, respectively. For the same molecule, the IC50 in series [17] was > 100000 nM. Moreover, the Cmax in series [6] came out at 1240 ng/mL. In series [9], this molecule gave an MRT of 5.45 h. The “fold change (FC)” value in the series listed under Rattus norvegicus [20] turned out to be 10. This molecule also came in with an AUC(0-t) in series [10] of 6840 ng·h/mL. In addition, in series [11], the bioavailability stood at 15.8%.
